Source: US11136296B2, “Substituted N-arylethyl-2-arylquinoline-4-carboxamides and use thereof” (Bayer Aktiengesellschaft, priority 2017, dated 2021)
pIC50: −log10 of the molar value.

Biological target: FP receptor (Homo sapiens (Human), UniProt P43088)
Test: In vitro test of inhibition of human FP receptor activity (PGF2α-induced calcium flux in FP-expressing CHEM1 cells)
Assay type: cell-based
Settings: PGF2α-induced (2 nM) calcium flux in FP-expressing CHEM1 cells; some as mean values from multiple determinations
Text: Table 1 below lists the IC50 values from this assay for individual working examples of the invention (some as mean values from multiple independent individual determinations): […]

Sequence of FP receptor (P43088 whole entry): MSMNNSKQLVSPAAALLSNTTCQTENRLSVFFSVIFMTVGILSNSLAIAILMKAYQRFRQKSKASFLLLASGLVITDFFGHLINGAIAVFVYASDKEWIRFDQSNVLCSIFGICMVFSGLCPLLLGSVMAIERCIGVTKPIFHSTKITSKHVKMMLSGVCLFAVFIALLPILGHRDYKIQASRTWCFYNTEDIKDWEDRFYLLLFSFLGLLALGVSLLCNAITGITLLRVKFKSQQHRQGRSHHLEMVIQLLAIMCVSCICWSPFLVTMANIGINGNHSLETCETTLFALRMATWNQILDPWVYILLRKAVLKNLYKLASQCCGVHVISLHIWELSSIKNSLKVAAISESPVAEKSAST

SMILES | pIC50
Cc1c(-c2ccccc2)nc2ccc(Br)cc2c1C(=O)NCC(C)(C(=O)O)c1cccc(C(F)(F)F)c1 (racemic) [Example 41, (+/−)-3-{[(6-Bromo-3-methyl-2-phenylquinolin-4-yl)carbonyl]amino}-2-methyl-2-[3-(trifluoromethyl)phenyl]propanoic Acid] | 6.89
COc1cccc(C(CNC(=O)c2c(C)c(-c3ccccc3)nc3ccc(Br)cc23)C(=O)O)c1 (racemic) [Example 44, (+/−)-3-{[(6-Bromo-3-methyl-2-phenylquinolin-4-yl)carbonyl]amino}-2-(3-methoxyphenyl)propanoic Acid] | 6.72
Cc1c(-c2ccccc2)nc2ccc(Br)cc2c1C(=O)NCC(C(=O)O)c1cccc(Cl)c1 (racemic) [Example 47, (+/−)-3-{[(6-Bromo-3-methyl-2-phenylquinolin-4-yl)carbonyl]amino}-2-(3-chlorophenyl)propanoic Acid] | 7.37
Cc1cccc(C(CNC(=O)c2c(C)c(-c3ccccc3)nc3ccc(Br)cc23)C(=O)O)c1 (racemic) [Example 50, (+/−)-3-{[(6-Bromo-3-methyl-2-phenylquinolin-4-yl)carbonyl]amino}-2-(3-methylphenyl)propanoic Acid] | 7.10
COc1ccccc1C(O)(CNC(=O)c1c(C)c(-c2ccccc2)nc2ccc(Br)cc12)C(=O)O (racemic) [Example 53, (+/−)-3-{[(6-Bromo-3-methyl-2-phenylquinolin-4-yl)carbonyl]amino}-2-hydroxy-2-(2-methoxyphenyl)propanoic Acid] | 6.74
COc1cccc(F)c1C(CNC(=O)c1c(C)c(-c2ccccc2)nc2ccc(Br)cc12)C(=O)O (racemic) [Example 56, (+/−)-3-{[(6-Bromo-3-methyl-2-phenylquinolin-4-yl)carbonyl]amino}-2-(2-fluoro-6-methoxyphenyl)propanoic Acid] | 7.68
Cc1c(-c2ccccc2)nc2ccc(Br)cc2c1C(=O)NCC(CC(=O)O)c1ccccc1 (racemic) [Example 63, (+/−)-4-{[(6-Bromo-3-methyl-2-phenylquinolin-4-yl)carbonyl]amino}-3-phenylbutanoic Acid] | 6.47
Cc1c(-c2ccccc2)nc2ccc(Br)cc2c1C(=O)NCC(CC(=O)O)c1ccc(Cl)cc1 (racemic) [Example 66, (+/−)-4-{[(6-Bromo-3-methyl-2-phenylquinolin-4-yl)carbonyl]amino}-3-(4-chlorophenyl)butanoic Acid] | 6.30
Cc1c(-c2ccccc2)nc2ccc(Br)cc2c1C(=O)NCC(CC(=O)O)c1cccc(Cl)c1 (racemic) [Example 72, (+/−)-4-{[(6-Bromo-3-methyl-2-phenylquinolin-4-yl)carbonyl]amino}-3-(3-chlorophenyl)butanoic Acid] | 7.35
Cc1ccccc1C(CNC(=O)c1c(C)c(-c2ccccc2)nc2ccc(Br)cc12)CC(=O)O (racemic) [Example 75, (+/−)-4-{[(6-Bromo-3-methyl-2-phenylquinolin-4-yl)carbonyl]amino}-3-(2-methylphenyl)butanoic Acid] | 7.16
Cc1c(-c2ccccc2)nc2ccc(Br)cc2c1C(=O)NCC(CC(=O)O)c1c(Cl)cccc1Cl (racemic) [Example 78, (+/−)-4-{[(6-Bromo-3-methyl-2-phenylquinolin-4-yl)carbonyl]amino}-3-(2,6-dichlorophenyl)butanoic Acid] | 7.00
Cc1c(-c2ccccc2)nc2ccc(Br)cc2c1C(=O)NCC(C)(CC(=O)O)c1ncccc1Cl (racemic) [Example 84, (+/−)-4-{[(6-Bromo-3-methyl-2-phenylquinolin-4-yl)carbonyl]amino}-3-(3-chloropyridin-2-yl)-3-methylbutanoic Acid] | 7.80
Cc1c(-c2ccccc2)nc2ccc(Br)cc2c1C(=O)NCC(CC(=O)O)c1c(F)cccc1Cl (racemic) [Example 87, (+/−)-4-{[(6-Bromo-3-methyl-2-phenylquinolin-4-yl)carbonyl]amino}-3-(2-chloro-6-fluorophenyl)butanoic Acid] | 7.64
Cc1ccc(C(CNC(=O)c2c(C)c(-c3ccccc3)nc3ccc(Br)cc23)CC(=O)O)cc1 (racemic) [Example 90, (+/−)-4-{[(6-Bromo-3-methyl-2-phenylquinolin-4-yl)carbonyl]amino}-3-(4-methylphenyl)butanoic Acid] | 6.33
Cc1cccc(C(CNC(=O)c2c(C)c(-c3ccccc3)nc3ccc(Br)cc23)CC(=O)O)c1 (racemic) [Example 93, (+/−)-4-{[(6-Bromo-3-methyl-2-phenylquinolin-4-yl)carbonyl]amino}-3-(3-methylphenyl)butanoic Acid] | 7.10
Cc1c(-c2ccccc2)nc2ccc(Br)cc2c1C(=O)NCC(CC(=O)O)c1ccccc1OC(F)(F)F (racemic) [Example 99, (+/−)-4-{[(6-Bromo-3-methyl-2-phenylquinolin-4-yl)carbonyl]amino}-3-[2-(trifluoromethoxy)phenyl]butanoic Acid] | 7.55

SMILES | pIC50
Cc1c(-c2ccccc2)nc2ccc(Br)cc2c1C(=O)NCC(CC(=O)O)c1ccccn1 (racemic) [Example 102, (+/−)-4-{[(6-Bromo-3-methyl-2-phenylquinolin-4-yl)carbonyl]amino}-3-(pyridin-2-yl)butanoic Acid] | 6.34
Cc1c(-c2ccccc2)nc2ccc(Br)cc2c1C(=O)NCC(CC(=O)O)c1ccccc1C(F)(F)F (racemic) [Example 105, (+/−)-4-{[(6-Bromo-3-methyl-2-phenylquinolin-4-yl)carbonyl]amino}-3-[2-(trifluoromethyl)phenyl]butanoic Acid] | 7.04
COc1cccnc1C(CNC(=O)c1c(C)c(-c2ccccc2)nc2ccc(Br)cc12)CC(=O)O (racemic) [Example 108, (+/−)-4-{[(6-Bromo-3-methyl-2-phenylquinolin-4-yl)carbonyl]amino}-3-(3-methoxypyridin-2-yl)butanoic Acid] | 7.11
Cc1c(-c2ccccc2)nc2ccc(Br)cc2c1C(=O)NCC(c1ccccc1Cl)C(C)(C)C(=O)O (racemic) [Example 111, (+/−)-4-{[(6-Bromo-3-methyl-2-phenylquinolin-4-yl)carbonyl]amino}-3-(2-chlorophenyl)-2,2-dimethylbutanoic Acid] | 7.05
Cc1c(-c2ccccc2)nc2ccc(Br)cc2c1C(=O)NCC(C)(CC(=O)O)c1ccccc1Cl (racemic) [Example 114, (+/−)-4-{[(6-Bromo-3-methyl-2-phenylquinolin-4-yl)carbonyl]amino}-3-(2-chlorophenyl)-3-methylbutanoic Acid] | 7.74
Cc1c(-c2ccccc2)nc2ccc(Br)cc2c1C(=O)NCC(C)(CC(=O)O)c1ccccn1 (racemic) [Example 117, (+/−)-4-{[(6-Bromo-3-methyl-2-phenylquinolin-4-yl)carbonyl]amino}-3-methyl-3-(pyridin-2-yl)butanoic Acid] | 6.62
COc1ccccc1C(C)(CNC(=O)c1c(C)c(-c2ccccc2)nc2ccc(Br)cc12)CC(=O)O (racemic) [Example 120, (+/−)-4-{[(6-Bromo-3-methyl-2-phenylquinolin-4-yl)carbonyl]amino}-3-(2-methoxyphenyl)-3-methylbutanoic Acid] | 7.52
COc1ccc(F)cc1C(CNC(=O)c1c(C)c(-c2ccccc2)nc2ccc(Br)cc12)CC(=O)O (racemic) [Example 123, (+/−)-4-{[(6-Bromo-3-methyl-2-phenylquinolin-4-yl)carbonyl]amino}-3-(5-fluoro-2-methoxyphenyl)butanoic Acid] | 7.96
COc1cccc(F)c1C(CNC(=O)c1c(C)c(-c2ccccc2)nc2ccc(Br)cc12)CC(=O)O (racemic) [Example 126, (+/−)-4-{[(6-Bromo-3-methyl-2-phenylquinolin-4-yl)carbonyl]amino}-3-(2-fluoro-6-methoxyphenyl)butanoic Acid] | 7.41
CCOc1ccccc1C(CNC(=O)c1c(C)c(-c2ccccc2)nc2ccc(Br)cc12)CC(=O)O (racemic) [Example 129, (+/−)-4-{[(6-Bromo-3-methyl-2-phenylquinolin-4-yl)carbonyl]amino}-3-(2-ethoxyphenyl)butanoic Acid] | 6.89
COc1ccc(F)cc1C(C)(CNC(=O)c1c(C)c(-c2ccccc2)nc2ccc(Br)cc12)CC(=O)O (racemic) [Example 132, (+/−)-4-{[(6-Bromo-3-methyl-2-phenylquinolin-4-yl)carbonyl]amino}-3-(5-fluoro-2-methoxyphenyl)-3-methylbutanoic Acid] | 7.49
COc1c(F)cc(F)cc1C(C)(CNC(=O)c1c(C)c(-c2ccccc2)nc2ccc(Br)cc12)CC(=O)O (racemic) [Example 135, (+/−)-4-{[(6-Bromo-3-methyl-2-phenylquinolin-4-yl)carbonyl]amino}-3-(3,5-difluoro-2-methoxyphenyl)-3-methylbutanoic Acid] | 7.89
COc1cc(F)ccc1C(C)(CNC(=O)c1c(C)c(-c2ccccc2)nc2ccc(Br)cc12)CC(=O)O (racemic) [Example 138, (+/−)-4-{[(6-Bromo-3-methyl-2-phenylquinolin-4-yl)carbonyl]amino}-3-(4-fluoro-2-methoxyphenyl)-3-methylbutanoic Acid] | 7.38
COc1ccccc1C(CNC(=O)c1c(C)c(-c2ccccc2)nc2ccc(Br)cc12)C(F)(F)C(=O)O (racemic) [Example 141, (+/−)-4-{[(6-Bromo-3-methyl-2-phenylquinolin-4-yl)carbonyl]amino}-2,2-difluoro-3-(2-methoxyphenyl)butanoic Acid] | 7.62
COc1cccc(F)c1C(C)(CNC(=O)c1c(C)c(-c2ccccc2)nc2ccc(Br)cc12)CC(=O)O (racemic) [Example 142, (+/−)-4-{[(6-Bromo-3-methyl-2-phenylquinolin-4-yl)carbonyl]amino}-3-(2-fluoro-6-methoxyphenyl)-3-methylbutanoic Acid] | 7.82
Cc1c(-c2ccccc2)nc2ccc(Br)cc2c1C(=O)NC(C)C(CC(=O)O)c1ccccc1Cl (racemic) [Example 145, (+/−)-4-{[(6-Bromo-3-methyl-2-phenylquinolin-4-yl)carbonyl]amino}-3-(2-chlorophenyl)pentanoic Acid] | 7.31
